In patent US9695396B2, “Regenerated tissue comprising a stratified structure of epithelial cells” (JAPAN SCIENCE AND TECHNOLOGY CORPORATION, priority 2001, dated 2017):

Experiments:
[1] = system: prostatic cancer-derived DU-145 cancer cells; assay: cancer therapy sensitivity test by MTT assay, DU-145 on PrEC in stratified structure, SuSa feeder layer (Embodiment 3); assay type: cell-based, human; settings: 1/10-fold culture medium, 10 μg/ml for 72 hours
AOI cancer tissue = assay: cancer therapy sensitivity test by MTT assay, AOI on NHBE, lung-derived fibroblasts (NHLF) as feeder layer; assay type: cell-based, human; settings: 10 μg/ml for 72 hours
[2] = system: regenerated normal bronchial epithelial tissue (NHBE); assay: cancer therapy sensitivity test by MTT assay, regenerated normal tissue, lung-derived fibroblasts (NHLF) as feeder layer; assay type: cell-based, human; settings: 10 μg/ml for 72 hours
Procedure: (§1) The cancer therapy sensitivity test was conducted in comparison with a conventional two-dimensional culture MTT assay system.
(§2) In these figures, a column of the cancer name (e.g: AOI) corresponds to the sensitivity of the cancer cells in the two-dimensional culture.
(§3) Also in these figures, the brackets the MTT assay correspond, from the left, the normal epithelial cell name employed (this time a bronchial epithelium (NHBE) or prostatic epithelium (PrEC)), the culture medium (1/10-fold or 1-fold), the fibroblast name employed as a feeder layer (human skin-derived (SUSA) or lung-derived (NHLF)). […] The drug treatments with all of three drugs employed here were conducted at 10 μg/ml for 72 hours.

[3] = system: regenerated normal bronchial epithelial tissue (NHBE); assay: cancer therapy sensitivity test by MTT assay, regenerated normal tissue, SuSa feeder layer (Embodiment 3); settings: 10 μg/ml for 72 hours
Procedure: as §1, §2, §3

AOI lung cancer cells = assay: cancer therapy sensitivity test by MTT assay, AOI on NHBE in stratified structure, SuSa feeder layer (Embodiment 3); assay type: cell-based, human; settings: 10 μg/ml for 72 hours
Procedure: as §1, §2, §3

hepatoma cells Alex = assay: cancer therapy sensitivity test by MTT assay on regenerated tissue (Embodiment 2), hepatoma; assay type: cell-based, human; settings: combination of irradiation with cisplatin; Alex on Nheps regenerated tissue
ACHN-L4 cells = assay: cancer therapy sensitivity test by MTT assay on regenerated tissue (Embodiment 2), renal cancer; assay type: cell-based, human; settings: novel sensitivity test, ACHN-L4 on RPTEC/NHMC regenerated tissue
AOI tumor = AOI tumor transplanted to a nude mouse; assay type: in vivo
[4] = 1-fold culture medium, lung-derived fibroblast feeder
[5] = 1/10-fold culture medium, lung-derived fibroblasts as feeder

SMILES | sensitivity of DU-145 cancer cells compared with the AOI cells [1] | sensitivity of the AOI cancer cell tissue in 3-dimensional culture (AOI cancer tissue; [4]) | sensitivity of tissue in MTT assay (AOI cancer tissue; [5]) | sensitivity of the normal tissue in 3-dimensional culture [2, 4] | sensitivity of tissue in MTT assay [2, 5] | proliferation of regenerated normal tissue ([3]; 1-fold culture medium, 5FU alone) | growth of the regenerated normal bronchial epithelial tissue after removing co-cultured AOI cancer tissue ([3]; 1/10-fold culture medium) | tendency of 3-dimensional tissue to be more resistant than two-dimensional culture (AOI lung cancer cells; degree influenced by growth factor level in medium) | difference in the sensitivity of the AOI cancer tissue by the difference in the fibroblasts (AOI cancer tissue; 1-fold culture medium, lung-derived vs skin-derived fibroblast feeder) | MTT assay result compared with the HDRA method (hepatoma cells Alex) | sensitivity of cancer cells in the MTT assay (ACHN-L4 cells) | body weight of the nude mouse reduced to (fraction) (AOI tumor; cisplatin at 10 mg/kg) | tumor growth (AOI tumor; cisplatin at 10 mg/kg, nude mouse) | resistance of 3-dimensional AOI cancer tissue coexisting with the normal tissue compared with 2-dimensionally cultured AOI cells (AOI lung cancer cells; 1/10-level medium, drug alone) | difference in sensitivity between the skin-derived and lung-derived fibroblasts (AOI cancer tissue; 1/10-fold culture medium) | resistance of 3-dimensionally growing normal tissue ([3]; 1-fold level culture medium, drug alone) | resistance of 3-dimensional normal tissue coexisting with the cancer tissue compared with the normal tissue alone ([3]; 1/10-level medium, drug alone) | sensitivity of AOI tumor to mitomycin compared with cisplatin (AOI tumor; nude mouse-transplanted tumor)
O=c1[nH]cc(F)c(=O)[nH]1 [5FU] | highly sensitive | reduced sensitivity | no tissue exhibited any sensitivity | reduced sensitivity | no tissue exhibited any sensitivity | proliferation was rather promoted | tendency of the promotion of the growth |  |  |  |  |  |  |  |  |  |  | 
N.N.[Cl][Pt][Cl] [cisplatin] | rather resistant |  |  |  |  |  |  | tendency described above was observed also | small | exhibited the difference in the effect | highly sensitive | about ⅔ | retarded growth was observed only for several days |  |  |  |  | 
CO[C@@]12[C@H](COC(N)=O)C3=C(C(=O)C(C)=C(N)C3=O)N1C[C@@H]1N[C@@H]12 [MMC, mitomycin] |  |  |  |  |  |  |  |  |  |  |  |  |  | more resistant | no substantial difference | rather more resistant | rather more resistant | rather more sensitive
